Source: ChEMBL document CHEMBL1201862, “PubChem BioAssay data set” (2004)
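Five compound concentrations were applied to cells in 96-well plates for 48 hours; endpoints were derived by simple linear interpolation of the resulting dose-response curve. GI50 = concentration required for 50% inhibition of growth.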 Calls of active or inactive are those of the source. Rule as the data show it: active = GI50 up to about 1.1 µM and inactive = higher.

Columns and labels:
Test in all cases: growth of human tumour cells (NCI), 48 h
786-0 = test system: 786-0
A498 = test system: A498
A549 = test system: A549
ACHN = test system: ACHN
BT-549 = test system: BT-549
CAKI-1 = test system: CAKI-1
COLO 205 = test system: COLO 205
DU-145 = test system: DU-145
EKVX = test system: EKVX
HCC 2998 = test system: HCC 2998
HCT-116 = test system: HCT-116
HCT-15 = test system: HCT-15
HL-60 = test system: HL-60
HOP-62 = test system: HOP-62
HOP-92 = test system: HOP-92
HT-29 = test system: HT-29
Hs-578T = test system: Hs-578T
IGROV-1 = test system: IGROV-1
K562 = test system: K562
KM12 = test system: KM12
LOX IMVI = test system: LOX IMVI
M14 = test system: M14
MCF7 = test system: MCF7
MDA-MB-231 = test system: MDA-MB-231
MDA-MB-435 = test system: MDA-MB-435
MDA-N = test system: MDA-N
MOLT-4 = test system: MOLT-4
Malme-3M = test system: Malme-3M
NCI-H226 = test system: NCI-H226
NCI-H460 = test system: NCI-H460
NCI-H522 = test system: NCI-H522
NCI/ADR-RES = test system: NCI/ADR-RES
OVCAR-3 = test system: OVCAR-3
OVCAR-4 = test system: OVCAR-4
OVCAR-5 = test system: OVCAR-5
OVCAR-8 = test system: OVCAR-8
PC-3 = test system: PC-3
RPMI-8226 = test system: RPMI-8226
RXF 393 = test system: RXF 393
SF-268 = test system: SF-268
SF-295 = test system: SF-295
SF-539 = test system: SF-539
SK-MEL-28 = test system: SK-MEL-28
SK-MEL-2 = test system: SK-MEL-2
SK-MEL-5 = test system: SK-MEL-5
SK-OV-3 = test system: SK-OV-3
SN12C = test system: SN12C
SNB-19 = test system: SNB-19
SNB-75 = test system: SNB-75
SR = test system: SR
SW-620 = test system: SW-620
T47D = test system: T47D
TK-10 = test system: TK-10
U-251 = test system: U-251
UACC-257 = test system: UACC-257
UACC-62 = test system: UACC-62
UO-31 = test system: UO-31

Compound: COc1cc2ccc(C(C)NCC#N)cc2cc1OC (configuration not stated)
- GI50 (786-0): > 100 µM (inactive)
- GI50 (A498): > 100 µM (inactive)
- GI50 (A549): > 100 µM (inactive)
- GI50 (ACHN): > 100 µM (inactive)
- GI50 (BT-549): > 100 µM (inactive)
- GI50 (CAKI-1): > 100 µM (inactive)
- GI50 (COLO 205): > 100 µM (inactive)
- GI50 (DU-145): > 100 µM (inactive)
- GI50 (EKVX): > 100 µM (inactive)
- GI50 (HCC 2998): 36.4 µM (inactive)
- GI50 (HCT-116): > 100 µM (inactive)
- GI50 (HCT-15): > 100 µM
- GI50 (HL-60): 46.5 µM (inactive)
- GI50 (HOP-62): > 100 µM (inactive)
- GI50 (HOP-92): > 100 µM (inactive)
- GI50 (HT-29): 75.2 µM (inactive)
- GI50 (Hs-578T): > 100 µM (inactive)
- GI50 (IGROV-1): > 100 µM (inactive)
- GI50 (K562): > 100 µM (inactive)
- GI50 (KM12): > 100 µM (inactive)
- GI50 (LOX IMVI): > 100 µM (inactive)
- GI50 (M14): > 100 µM (inactive)
- GI50 (MCF7): > 100 µM (inactive)
- GI50 (MDA-MB-231): > 100 µM (inactive)
- GI50 (MDA-MB-435): > 100 µM (inactive)
- GI50 (MDA-N): > 100 µM (inactive)
- GI50 (MOLT-4): 28.8 µM (inactive)
- GI50 (Malme-3M): > 100 µM (inactive)
- GI50 (NCI-H226): > 100 µM (inactive)
- GI50 (NCI-H460): > 100 µM (inactive)
- GI50 (NCI-H522): > 100 µM (inactive)
- GI50 (NCI/ADR-RES): > 100 µM (inactive)
- GI50 (OVCAR-3): > 100 µM (inactive)
- GI50 (OVCAR-4): > 100 µM (inactive)
- GI50 (OVCAR-5): > 100 µM (inactive)
- GI50 (OVCAR-8): > 100 µM (inactive)
- GI50 (PC-3): > 100 µM (inactive)
- GI50 (RPMI-8226): > 100 µM (inactive)
- GI50 (RXF 393): > 100 µM (inactive)
- GI50 (SF-268): > 100 µM (inactive)
- GI50 (SF-295): > 100 µM (inactive)
- GI50 (SF-539): > 100 µM (inactive)
- GI50 (SK-MEL-28): > 100 µM (inactive)
- GI50 (SK-MEL-2): > 100 µM (inactive)
- GI50 (SK-MEL-5): > 100 µM (inactive)
- GI50 (SK-OV-3): > 100 µM (inactive)
- GI50 (SN12C): > 100 µM (inactive)
- GI50 (SNB-19): > 100 µM (inactive)
- GI50 (SNB-75): > 100 µM (inactive)
- GI50 (SR): 28.1 µM (inactive)
- GI50 (SW-620): > 100 µM (inactive)
- GI50 (T47D): > 100 µM (inactive)
- GI50 (TK-10): > 100 µM (inactive)
- GI50 (U-251): > 100 µM (inactive)
- GI50 (UACC-257): > 100 µM (inactive)
- GI50 (UACC-62): > 100 µM (inactive)
- GI50 (UO-31): > 100 µM (inactive)
